PubChem BioAssay (NCI)
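Compound exposure: 48 hours, 5 concentrations, 96-well plates. TGI is the concentration that stops growth completely.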

Legend:
Experiment in all cases: NCI-60 cell line screen, 48 h
OVCAR-8 ovarian = system: OVCAR-8 ovarian
CCRF-CEM leukemia = system: CCRF-CEM leukemia
SK-MEL-5 melanoma = system: SK-MEL-5 melanoma
PC-3 prostate = system: PC-3 prostate
HCT-15 colon = system: HCT-15 colon
HT29 colon = system: HT29 colon
SW-620 colon = system: SW-620 colon
ACHN renal = system: ACHN renal
SF-539 CNS = system: SF-539 CNS
A549 NSCLC = system: A549 NSCLC
MOLT-4 leukemia = system: MOLT-4 leukemia
RXF 393 renal = system: RXF 393 renal
HOP-62 NSCLC = system: HOP-62 NSCLC
U251 CNS = system: U251 CNS
UACC-62 melanoma = system: UACC-62 melanoma
SF-295 CNS = system: SF-295 CNS
MDA-MB-435 = system: MDA-MB-435
T-47D breast = system: T-47D breast
SNB-19 CNS = system: SNB-19 CNS
HOP-92 NSCLC = system: HOP-92 NSCLC
SK-MEL-28 melanoma = system: SK-MEL-28 melanoma
SNB-75 CNS = system: SNB-75 CNS
M14 melanoma = system: M14 melanoma
COLO 205 colon = system: COLO 205 colon
MALME-3M melanoma = system: MALME-3M melanoma
NCI-H226 lung = system: NCI-H226 lung
OVCAR-4 ovarian = system: OVCAR-4 ovarian
HCT-116 colon = system: HCT-116 colon
IGROV1 ovarian = system: IGROV1 ovarian
MDA-MB-231 breast = system: MDA-MB-231 breast
UO-31 renal = system: UO-31 renal
BT-549 breast = system: BT-549 breast
LOX IMVI melanoma = system: LOX IMVI melanoma
DU-145 prostate = system: DU-145 prostate
RPMI-8226 leukemia = system: RPMI-8226 leukemia
HS 578T breast = system: HS 578T breast
NCI-H460 lung = system: NCI-H460 lung
MCF7 breast = system: MCF7 breast
HL-60(TB) leukemia = system: HL-60(TB) leukemia
SR leukemia = system: SR leukemia
786-0 renal = system: 786-0 renal
HCC-2998 colon = system: HCC-2998 colon
SK-MEL-2 melanoma = system: SK-MEL-2 melanoma
K-562 leukemia = system: K-562 leukemia
SK-OV-3 ovarian = system: SK-OV-3 ovarian
UACC-257 melanoma = system: UACC-257 melanoma
OVCAR-5 ovarian = system: OVCAR-5 ovarian
NCI-H23 lung = system: NCI-H23 lung
SF-268 CNS = system: SF-268 CNS
NCI/ADR-RES ovarian = system: NCI/ADR-RES ovarian
CAKI-1 renal = system: CAKI-1 renal
A498 renal = system: A498 renal
KM12 colon = system: KM12 colon
OVCAR-3 ovarian = system: OVCAR-3 ovarian
EKVX NSCLC = system: EKVX NSCLC
TK-10 renal = system: TK-10 renal
NCI-H522 lung = system: NCI-H522 lung
SN12C renal = system: SN12C renal

For C/C(=N\NS(=O)(=O)c1ccc(C)cc1)c1ccccn1, the TGI (OVCAR-8 ovarian) was > 100 µM, the TGI (CCRF-CEM leukemia) was 78.9 µM and the TGI (SK-MEL-5 melanoma) was > 100 µM. For the same compound, the TGI (PC-3 prostate) was > 100 µM, the TGI (HCT-15 colon) was > 100 µM and the TGI (HT29 colon) was > 100 µM. For the same compound, the TGI (SW-620 colon) was > 100 µM, the TGI (ACHN renal) was 83.3 µM and the TGI (SF-539 CNS) was > 100 µM. For the same compound, the TGI (A549 NSCLC) was > 100 µM, the TGI (MOLT-4 leukemia) was > 100 µM and the TGI (RXF 393 renal) was > 100 µM. For the same compound, the TGI (HOP-62 NSCLC) was > 100 µM, the TGI (U251 CNS) was > 100 µM and the TGI (UACC-62 melanoma) was > 100 µM. For the same compound, the TGI (SF-295 CNS) was > 100 µM, the TGI (MDA-MB-435) was > 100 µM and the TGI (T-47D breast) was > 100 µM. The TGI (SNB-19 CNS) was > 100 µM, the TGI (HOP-92 NSCLC) was > 100 µM and the TGI (SK-MEL-28 melanoma) was > 100 µM. The TGI (SNB-75 CNS) was > 100 µM, the TGI (M14 melanoma) was > 100 µM and the TGI (COLO 205 colon) was 93.5 µM. For the same compound, the TGI (MALME-3M melanoma) was > 100 µM, the TGI (NCI-H226 lung) was > 100 µM and the TGI (OVCAR-4 ovarian) was > 100 µM. For the same compound, the TGI (HCT-116 colon) was > 100 µM, the TGI (IGROV1 ovarian) was > 100 µM and the TGI (MDA-MB-231 breast) was > 100 µM. The TGI (UO-31 renal) was > 100 µM, the TGI (BT-549 breast) was > 100 µM and the TGI (LOX IMVI melanoma) was > 100 µM. The TGI (DU-145 prostate) was > 100 µM, the TGI (RPMI-8226 leukemia) was > 100 µM and the TGI (HS 578T breast) was > 100 µM. The TGI (NCI-H460 lung) was > 100 µM, the TGI (MCF7 breast) was > 100 µM and the TGI (HL-60(TB) leukemia) was 73.3 µM. The TGI (SR leukemia) was > 100 µM, the TGI (786-0 renal) was > 100 µM and the TGI (HCC-2998 colon) was > 100 µM. For the same compound, the TGI (SK-MEL-2 melanoma) was > 100 µM, the TGI (K-562 leukemia) was > 100 µM and the TGI (SK-OV-3 ovarian) was > 100 µM. For the same compound, the TGI (UACC-257 melanoma) was > 100 µM, the TGI (OVCAR-5 ovarian) was > 100 µM and the TGI (NCI-H23 lung) was > 100 µM. For the same compound, the TGI (SF-268 CNS) was > 100 µM, the TGI (NCI/ADR-RES ovarian) was > 100 µM and the TGI (CAKI-1 renal) was > 100 µM. For the same compound, the TGI (A498 renal) was > 100 µM, the TGI (KM12 colon) was > 100 µM and the TGI (OVCAR-3 ovarian) was > 100 µM. For the same compound, the TGI (EKVX NSCLC) was > 100 µM and the TGI (TK-10 renal) was > 100 µM.
In the case of COc1cc(C2c3cc4c(cc3OC(C)(N3CCCC3)C2C)OCO4)cc(OC)c1OC (stereo not drawn), the TGI (NCI-H522 lung) is reported as 0.612 µM, the TGI (CCRF-CEM leukemia) is reported as > 50.3 µM and the TGI (SK-MEL-5 melanoma) is reported as 1.58 µM. For the same compound, the TGI (PC-3 prostate) was > 100 µM, the TGI (HCT-15 colon) was 11.3 µM and the TGI (HT29 colon) was 0.836 µM. For the same compound, the TGI (SW-620 colon) was > 100 µM, the TGI (ACHN renal) was > 79.9 µM and the TGI (SF-539 CNS) was 0.716 µM. The TGI (A549 NSCLC) was > 100 µM, the TGI (MOLT-4 leukemia) was 10.6 µM and the TGI (RXF 393 renal) was 2.93 µM. For the same compound, the TGI (HOP-62 NSCLC) was 66.8 µM, the TGI (U251 CNS) was 23.3 µM and the TGI (UACC-62 melanoma) was 19.1 µM. The TGI (SF-295 CNS) was 0.661 µM, the TGI (MDA-MB-435) was 0.377 µM and the TGI (T-47D breast) was > 100 µM. The TGI (SNB-19 CNS) was > 100 µM, the TGI (HOP-92 NSCLC) was 33.6 µM and the TGI (SK-MEL-28 melanoma) was > 100 µM. It also gave a TGI (SNB-75 CNS) of 0.65 µM, a TGI (M14 melanoma) of 4.81 µM and a TGI (COLO 205 colon) of 0.528 µM. The TGI (MALME-3M melanoma) was > 55.2 µM, the TGI (NCI-H226 lung) was 2.05 µM and the TGI (OVCAR-4 ovarian) was > 100 µM. For the same compound, the TGI (HCT-116 colon) was 16.5 µM, the TGI (IGROV1 ovarian) was 46.7 µM and the TGI (MDA-MB-231 breast) was 2.42 µM. It also gave a TGI (UO-31 renal) of 57 µM, a TGI (SN12C renal) of 30.8 µM and a TGI (BT-549 breast) of 12.2 µM. For the same compound, the TGI (LOX IMVI melanoma) was > 31.4 µM, the TGI (DU-145 prostate) was 2.57 µM and the TGI (RPMI-8226 leukemia) was 11.7 µM. It also gave a TGI (HS 578T breast) of 0.721 µM, a TGI (NCI-H460 lung) of 19.2 µM and a TGI (MCF7 breast) of 16.3 µM. For the same compound, the TGI (HL-60(TB) leukemia) was 0.685 µM, the TGI (SR leukemia) was 9.62 µM and the TGI (786-0 renal) was > 100 µM. It also gave a TGI (HCC-2998 colon) of 2.57 µM, a TGI (SK-MEL-2 melanoma) of 52.1 µM and a TGI (K-562 leukemia) of 0.908 µM. For the same compound, the TGI (SK-OV-3 ovarian) was > 62.6 µM, the TGI (UACC-257 melanoma) was > 100 µM and the TGI (OVCAR-5 ovarian) was > 20.5 µM. The TGI (NCI-H23 lung) was 6.32 µM, the TGI (SF-268 CNS) was > 92.9 µM and the TGI (NCI/ADR-RES ovarian) was 0.522 µM. For the same compound, the TGI (CAKI-1 renal) was > 20.2 µM, the TGI (A498 renal) was 5.7 µM and the TGI (KM12 colon) was 9.45 µM. For the same compound, the TGI (OVCAR-3 ovarian) was 0.528 µM, the TGI (EKVX NSCLC) was > 50.8 µM and the TGI (TK-10 renal) was > 67.1 µM.
